Each structure is given as a SMILES string.

T1 sequence (P28845 whole entry): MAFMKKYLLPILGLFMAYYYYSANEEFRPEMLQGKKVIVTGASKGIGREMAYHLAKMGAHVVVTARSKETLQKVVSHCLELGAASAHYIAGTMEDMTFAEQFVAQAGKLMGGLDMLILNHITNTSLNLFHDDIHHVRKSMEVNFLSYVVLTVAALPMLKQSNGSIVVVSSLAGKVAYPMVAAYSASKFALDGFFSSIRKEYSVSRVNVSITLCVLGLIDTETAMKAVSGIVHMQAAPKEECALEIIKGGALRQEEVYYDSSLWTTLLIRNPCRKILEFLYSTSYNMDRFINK

This experiment concerns the target T1, human 11βHSD1 enzyme (Homo sapiens, UniProt P28845).
T1 construct: baculovirus expressed N terminal 6-His tagged full length human 11βHSD1 enzyme; 6-His (N); made in house
The experiment is described as follows: 11βHSD1 cortisone to cortisol conversion, competitive HTRF assay. It counts as biochemical. To be noted: human 11-βHSD; test concentration of 30 μM of compound. The essentials: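 Enzyme was baculovirus-expressed, N-terminal 6-His-tagged full-length human 11βHSD1, purified on a copper chelate column. Compounds were added in buffer containing 1% DMSO at 10-fold final concentration.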
Regarding `O=C(N[C@H]1C2CC3CC1C[C@@](O)(C3)C2)c1cnc(N2C[C@@H]3C[C@H]2CO3)nc1C1CCCC1` [Example 120, 4-cyclopentyl-N-[(2r,5s)-5-hydroxyadamantan-2-yl]-2-[(1S,4S)-2-oxa-5-azabicyclo[2.2.1]heptan-5-yl]pyrimidine-5-carboxamide], the inhibition at 30 µM is 101%.

As for `CC(C)Nc1ncc(C(=O)N[C@H]2C3CC4CC2C[C@@](O)(C4)C3)c(C2CCCC2)n1` [Example 121, 4-cyclopentyl-N-[(2r,5s)-5-hydroxyadamantan-2-yl]-2-(propan-2-ylamino)pyrimidine-5-carboxamide], the inhibition at 30 µM was found to be 104%.

As for `O=C(N[C@H]1C2CC3CC1C[C@@](O)(C3)C2)c1cnc(NC2CC2)nc1C1CCCC1` [Example 122, 4-cyclopentyl-2-(cyclopropylamino)-N-[(2r,5s)-5-hydroxyadamantan-2-yl]pyrimidine-5-carboxamide], the inhibition at 30 µM worked out at 97.5%.

Take `C[C@H]1COCCN1c1ncc(C(=O)N[C@H]2C3CC4CC2C[C@@](O)(C4)C3)c(C2CCCC2)n1` [Example 123]: the inhibition at 30 µM was determined as 99.1%.

Consider `COCCN1CCN(c2ncc(C(=O)N[C@H]3C4CC5CC3C[C@](O)(C5)C4)c(C3CCCC3)n2)CC1` [Example 125, 4-cyclopentyl-N-[(2r,5s)-5-hydroxyadamantan-2-yl]-2-[4-(2-methoxyethyl)piperazin-1-yl]pyrimidine-5-carboxamide], for which the inhibition at 30 µM came out at 95%.

With `CC(=O)N1CCN(c2ncc(C(=O)N[C@H]3C4CC5CC3C[C@@](O)(C5)C4)c(C3CCCC3)n2)CC1` [Example 126, 2-(4-acetylpiperazin-1-yl)-4-cyclopentyl-N-[(2r,5s)-5-hydroxyadamantan-2-yl]pyrimidine-5-carboxamide], the inhibition at 30 µM worked out at 96.6%.

Regarding `CC(C)N1CCN(c2ncc(C(=O)N[C@H]3C4CC5CC3C[C@@](O)(C5)C4)c(C3CCCC3)n2)CC1=O` [Example 127, 4-cyclopentyl-N-[(2r,5s)-5-hydroxyadamantan-2-yl]-2-(3-oxo-4-propan-2-ylpiperazin-1-yl)pyrimidine-5-carboxamide], the inhibition at 30 µM is 103%.

Take `CN1CCN(c2ncc(C(=O)N[C@H]3C4CC5CC3C[C@@](O)(C5)C4)c(C3CCCC3)n2)CC1=O` [Example 128, 4-cyclopentyl-N-[(2r,5s)-5-hydroxyadamantan-2-yl]-2-(4-methyl-3-oxopiperazin-1-yl)pyrimidine-5-carboxamide]: the inhibition at 30 µM amounted to 99.1%.

Turning to `O=C(N[C@H]1C2CC3CC1C[C@](O)(C3)C2)c1cnc(NC2CCC2)nc1C1CCCC1` [Example 129, 4-cyclopentyl-2-(cyclobutylamino)-N-[(2r,5s)-5-hydroxyadamantan-2-yl]pyrimidine-5-carboxamide], the inhibition at 30 µM came to 95.5%.

With `O=C(N[C@H]1C2CC3CC1C[C@](O)(C3)C2)c1cnc(NC2CCCC2)nc1C1CCCC1` [Example 130, 4-cyclopentyl-2-(cyclopentylamino)-N-[(2r,5s)-5-hydroxyadamantan-2-yl]pyrimidine-5-carboxamide], the inhibition at 30 µM was 96.1%.

As to `O=C(N[C@H]1C2CC3CC1C[C@@](O)(C3)C2)c1cnc(N2CCC2)nc1C1CCCC1` [Example 131, 2-(azetidin-1-yl)-4-cyclopentyl-N-[(2r,5s)-5-hydroxyadamantan-2-yl]pyrimidine-5-carboxamide], the inhibition at 30 µM is 101%.

On to `CN(C)c1ncc(C(=O)N[C@H]2C3CC4CC2C[C@@](O)(C4)C3)c(C2CCCC2)n1` [Example 133, 4-cyclopentyl-2-dimethylamino-N-[(2r,5s)-5-hydroxyadamantan-2-yl]pyrimidine-5-carboxamide], for which the inhibition at 30 µM worked out at 94%.

As to `C[C@@H]1CN(c2ncc(C(=O)N[C@H]3C4CC5CC3C[C@](O)(C5)C4)c(C3CCCC3)n2)C[C@H](C)N1` [Example 134, 4-cyclopentyl-2-[(3S,5R)-3,5-dimethylpiperazin-1-yl]-N-[(2r,5s)-5-hydroxyadamantan-2-yl]pyrimidine-5-carboxamide], the inhibition at 30 µM amounted to 94.1%.

With `Nc1ncc(C(=O)N[C@H]2C3CC4CC2C[C@@](O)(C4)C3)c(C2CCCC2)n1` [Example 135, 2-amino-4-cyclopentyl-N-[(2r,5s)-5-hydroxyadamantan-2-yl]pyrimidine-5-carboxamide], the inhibition at 30 µM was found to be 100%.

Take `O=C(N[C@H]1C2CC3CC1C[C@@](O)(C3)C2)c1cnc(N2CCOCC2CO)nc1C1CCCC1` (some centres unmarked) [Example 141, 4-cyclopentyl-N-[(2r,5s)-5-hydroxyadamantan-2-yl]-2-[3-(hydroxymethyl)morpholin-4-yl]pyrimidine-5-carboxamide]: the inhibition at 30 µM amounted to 105%.

`O=C(N[C@H]1C2CC3CC1C[C@@](O)(C3)C2)c1cnc(N[C@@H]2CCOC2)nc1C1CCCC1` [Example 142, 4-cyclopentyl-N-[(2r,5s)-5-hydroxyadamantan-2-yl]-2-[[(3R)-oxolan-3-yl]amino]pyrimidine-5-carboxamide]: the inhibition at 30 µM was found to be 99.7%.

For `CS(=O)(=O)N1CCN(c2ncc(C(=O)N[C@H]3C4CC5CC3C[C@@](O)(C5)C4)c(C3CCCC3)n2)CC1` [Example 143, 4-cyclopentyl-N-[(2r,5s)-5-hydroxyadamantan-2-yl]-2-(4-methylsulfonylpiperazin-1-yl)pyrimidine-5-carboxamide], the inhibition at 30 µM turned out to be 95%.

For `O=C(N[C@H]1C2CC3CC1C[C@@](O)(C3)C2)c1cnc(N[C@H]2CCOC2)nc1C1CCCC1` [Example 144, 4-cyclopentyl-N-[(2r,5s)-5-hydroxyadamantan-2-yl]-2-[[(3S)-oxolan-3-yl]amino]pyrimidine-5-carboxamide], the inhibition at 30 µM turned out to be 98.8%.

Regarding `O=C(N[C@H]1C2CC3CC1C[C@@](O)(C3)C2)c1cnc(N2CCOC(CO)C2)nc1C1CCCC1` (some centres unmarked) [Example 145, 4-cyclopentyl-N-[(2r,Ss)-5-hydroxyadamantan-2-yl]-2-[2-(hydroxymethyl)morpholin-4-yl]pyrimidine-5-carboxamide], the inhibition at 30 µM is 92.9%.

`O=C(N[C@H]1C2CC3CC1C[C@@](O)(C3)C2)c1cnc(N2CC(F)(F)C2)nc1C1CCCC1` [Example 146, 4-cyclopentyl-2-(3,3-difluoroazetidin-1-yl)-N-[(2r,5s)-5-hydroxyadamantan-2-yl]pyrimidine-5-carboxamide]: the inhibition at 30 µM was 93.4%.

`O=C(N[C@H]1C2CC3CC1C[C@@](O)(C3)C2)c1cnc(NCCN2CCOCC2)nc1C1CCCC1` [Example 147, 4-cyclopentyl-N-[(2r,5s)-5-hydroxytricyclo[3.3.1.13,7]dec-2-yl]-2-[(2-morpholin-4-ylethyl)amino]pyrimidine-5-carboxamide]: the inhibition at 30 µM worked out at 103%.

Take `C[C@@H]1CN(CCNc2ncc(C(=O)N[C@H]3C4CC5CC3C[C@@](O)(C5)C4)c(C3CCCC3)n2)C[C@H](C)O1` [Example 148, 4-cyclopentyl-2-({2-[(2R,6S)-2,6-dimethylmorpholin-4-yl]ethyl}amino)-N-[(2r,5s)-5-hydroxytricyclo[3.3.1.13,7]dec-2-yl]pyrimidine-5-carboxamide]: the inhibition at 30 µM stood at 102%.

`O=C(N[C@H]1C2CC3CC1C[C@@](O)(C3)C2)c1cnc(C2CC2)nc1C1CCCC1` [Example 149, 4-Cyclopentyl-2-cyclopropyl-N-[(2r,5s)-5-hydroxyadamantan-2-yl]pyrimidine-5-carboxamide]: the inhibition at 30 µM amounted to 92%.

The record behind these values is patent publication US20090264401A1, “SUBSTITUTED PYRIMIDIN-5-CARBOXAMIDES 281” (AstraZeneca AB, priority 2008, published 2009).
